According to PubChem BioAssay (NCI):
Values joined by “and” are separate entries in the source; they are usually repeats but may differ in a detail not shown here. Equal values may be shown once.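 Cultured in 96-well plates, cells were exposed to test compound for 48 hours across five concentrations. Abbreviation: GI50, concentration required for 50% inhibition of growth. Definition used: TGI = concentration required for complete inhibition of growth.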 Peptide text beside a SMILES is read from it. * marks the point of attachment. Boc = CC(C)(C)OC(=O)*

Key:
Test in all cases: DTP human tumour cell line panel, 48 h
MDA-MB-435 = test system: MDA-MB-435
ACHN renal = test system: ACHN renal
SK-MEL-5 melanoma = test system: SK-MEL-5 melanoma
SN12C renal = test system: SN12C renal
UACC-257 melanoma = test system: UACC-257 melanoma
NCI-H23 lung = test system: NCI-H23 lung
EKVX NSCLC = test system: EKVX NSCLC
OVCAR-4 ovarian = test system: OVCAR-4 ovarian
NCI-H522 lung = test system: NCI-H522 lung
SK-MEL-2 melanoma = test system: SK-MEL-2 melanoma

SMILES | TGI (MDA-MB-435) [µM] | TGI (ACHN renal) [µM] | TGI (SK-MEL-5 melanoma) | TGI (SN12C renal) | TGI (UACC-257 melanoma) [µM] | TGI (NCI-H23 lung) | TGI (EKVX NSCLC) | TGI (OVCAR-4 ovarian) | TGI (NCI-H522 lung) [µM] | TGI (SK-MEL-2 melanoma) [µM] | GI50 (EKVX NSCLC) [µM] | GI50 (ACHN renal) [µM] | GI50 (SK-MEL-5 melanoma) [µM] | GI50 (SN12C renal) [µM] | GI50 (OVCAR-4 ovarian) [µM] | GI50 (NCI-H522 lung) [µM] | GI50 (UACC-257 melanoma) [µM] | GI50 (SK-MEL-2 melanoma) [µM] | GI50 (NCI-H23 lung) [µM]
Cc1cccc(N2CCN(S(=O)(=O)c3ccc(Cl)cc3)C2=N)c1C | > 100 | > 100 | > 100 µM | > 100 µM | > 100 | > 100 µM |  |  |  |  |  |  |  |  |  |  |  |  | 
COCCCN1C(=O)C2c3[nH]c4ccccc4c3C3CCC(C(C)(C)C)CC3C2C1=O (centres undefined) | > 100 | 83.9 | 82.4 µM | 50 µM | 79.4 | 82.6 µM | > 100 µM | > 100 µM | 55.4 |  |  |  |  |  |  |  |  |  | 
COc1ccc([C@@]23CCC(=O)C[C@@H]2N(C)CC3)cc1OC | > 100 | > 100 | > 100 µM |  | > 100 | > 100 µM | > 100 µM | > 100 µM | > 100 | > 100 |  |  |  |  |  |  |  |  | 
CC1=CC(c2ccccc2)n2c(nc3cc4ccccc4cc32)N1 (centres undefined) | > 100 | > 100 | > 100 µM |  | > 100 | > 100 µM | > 100 µM | > 100 µM |  | > 100 |  |  |  |  |  |  |  |  | 
O=C1N2CCc3c([nH]c4ccccc34)C23CC2CCCC12S3 (centres undefined) | > 50 | > 50 | > 50 µM | > 50 µM | 47.5 | > 50 µM | > 50 µM | > 50 µM | > 50 | > 50 |  |  |  |  |  |  |  |  | 
CSCCC(NC(=O)C(CC(C)C)NC(=O)CNC(=O)OC(C)(C)C)C(=O)N(C)C (stereo not drawn) (Boc-Gly-Leu-Met-NMe2; configuration not given here) | > 100 | > 100 | > 100 µM | > 100 µM | > 100 | > 100 µM | > 100 µM | > 100 µM | > 100 | > 100 |  |  |  |  |  |  |  |  | 
COC1(OC)/C(=C(\N)C=O)NC(C)(C)N1O | > 100 | > 100 | > 100 µM | > 100 µM | > 100 | > 100 µM | > 100 µM | > 100 µM | > 100 | > 100 |  |  |  |  |  |  |  |  | 
O=C(CCN1CCCCC1CO)Nc1ccc2c(c1)C(=O)c1ccc(NC(=O)CCN3CCCCC3CO)cc1C2=O (centres undefined) |  | 32 | 29 µM | 25.5 µM | 91.3 | 38.1 µM | 47 µM | 27.1 µM | 20.6 | 18.8 |  |  |  |  |  |  |  |  | 
c1csc(-c2ccc(-c3ccc(-c4cccs4)s3)s2)c1 | > 100 | > 100 | > 100 µM | > 100 µM | > 100 | > 100 µM | > 100 µM | > 100 µM | > 100 | > 100 |  |  |  |  |  |  |  |  | 
COc1ccc(CC2C(=O)NC(C)C(=O)N(C)C3Cc4ccc(cc4)Oc4cc(ccc4O)CC(C(=O)NC(C)C(=O)NC(C)C(=O)N2C)N(C)C3=O)cc1 (centres undefined) |  | 45 | 0.0532 µM and 0.127 µM and 0.0679 µM | 0.281 µM and 0.536 µM |  | 0.0293 µM and 0.0212 µM and 0.158 µM | 0.144 µM and 0.0424 µM | 0.523 µM and 0.131 µM and 0.088 µM |  |  | 0.00125 | 0.45 | 0.00102 | 0.208 | < 0.0001 | < 0.0001 | < 0.0001 | < 0.0001 | < 0.0001
CSC1(SC)CCCCCCCCCCC1 | > 100 | > 100 | > 100 µM | > 100 µM | 74 | > 100 µM | > 100 µM | > 100 µM | 34.9 | > 100 |  |  |  |  |  |  |  |  | 
Cc1ccc(S(=O)(=O)NC(=O)NS(=O)(=O)O)cc1 |  | > 100 | > 100 µM | > 100 µM | > 100 | > 100 µM |  | > 100 µM | > 100 | > 100 |  |  |  |  |  |  |  |  | 
C=CC1(CCC(Br)C(C)(C)Cl)CO1 (centres undefined) | > 10 | > 10 | > 10 µM | > 10 µM |  |  | > 10 µM |  | > 10 | > 10 |  |  |  |  |  |  |  |  | 
CSc1s[s+]c(SC)c1-c1ccccc1 | 36 | 32.8 | 29.3 µM | 35 µM | 27.8 | 34.7 µM | 33 µM | 17.9 µM | 27.9 |  |  |  |  |  |  |  |  |  | 
CCOC(=O)Cc1nc2c(=O)[nH]cnc2n1C1OC(COC(C)=O)C(OC(C)=O)C1OC(C)=O (centres undefined) | > 100 | > 100 | > 100 µM | > 100 µM | > 100 | > 100 µM | > 100 µM | > 100 µM | > 100 | > 100 |  |  |  |  |  |  |  |  | 
CC(=O)Nc1ncc2c(n1)-c1ccccc1OC2 | > 100 | > 100 | > 100 µM | > 100 µM | > 100 | > 100 µM | > 100 µM | > 100 µM | > 100 | > 100 |  |  |  |  |  |  |  |  | 
COC(=O)c1cc2c3c(c(C(C)=O)c(OC)c2[nH]1)NCC3 | > 50 | > 50 | > 50 µM | > 50 µM | > 50 | > 50 µM | > 50 µM |  |  | > 50 |  |  |  |  |  |  |  |  | 
C=C1C(=O)C[C@@]23CCC[C@@]12CC(O)C3 (some centres undefined) |  |  | > 39.5 µM | 38.1 µM | 52.3 | 53.8 µM | > 73.5 µM | 36.2 µM | 7.55 | 73.2 |  |  |  |  |  |  |  |  | 
Cc1nn(C(=O)c2ccccc2O)c2c1C(c1ccc(O)cc1)SC(N)=N2 (centres undefined) | > 10 | > 10 | > 10 µM | > 10 µM | > 10 | > 10 µM | > 10 µM | > 8.37 µM | > 10 | > 10 |  |  |  |  |  |  |  |  | 
BrCC[P+](c1ccccc1)(c1ccccc1)c1ccccc1 | 10.8 | > 100 | 26.3 µM | 8.39 µM | 16.5 |  | 12.8 µM | 23.1 µM |  | 16.7 |  |  |  |  |  |  |  |  | 
CC(=O)OCC1OC(n2c3c(c(-c4ccco4)c(C#N)c2=S)CCCC3)C(OC(C)=O)C(OC(C)=O)C1OC(C)=O (centres undefined) | > 100 | > 31.6 | > 31.6 µM | > 31.6 µM | > 31.6 | > 31.6 µM | 29.8 µM | > 31.6 µM | > 31.6 | > 31.6 |  |  |  |  |  |  |  |  | 
COc1cc(O)c2c(c1)C(O)C(O)CC1OC1C(=O)/C=C/CC(C)OC2=O (centres undefined) | 8.31 | 17 | 15.4 µM | 11.8 µM | 2.48 | 12 µM | 35.8 µM | > 52.9 µM | 8.07 | 13.5 |  |  |  |  |  |  |  |  | 
